In PubChem BioAssay (NCI):
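Briefly, cells in 96-well plates were exposed to five compound concentrations for 48 h, and endpoints were estimated by linear interpolation. GI50 = concentration required for 50% inhibition of growth. The concentration for full growth arrest is given as TGI.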

Legend:
Test in all cases: growth of human tumour cells (NCI), 48 h
HCC-2998 colon = system: HCC-2998 colon
NCI-H23 lung = system: NCI-H23 lung
COLO 205 colon = system: COLO 205 colon
UO-31 renal = system: UO-31 renal
UACC-257 melanoma = system: UACC-257 melanoma
OVCAR-4 ovarian = system: OVCAR-4 ovarian
HOP-92 NSCLC = system: HOP-92 NSCLC
HT29 colon = system: HT29 colon
786-0 renal = system: 786-0 renal
SF-539 CNS = system: SF-539 CNS

Row | Compound | TGI (HCC-2998 colon) [µM] | TGI (NCI-H23 lung) [µM] | TGI (COLO 205 colon) [µM] | TGI (UO-31 renal) [µM] | TGI (UACC-257 melanoma) [µM] | TGI (OVCAR-4 ovarian) [µM] | TGI (HOP-92 NSCLC) [µM] | TGI (HT29 colon) [µM] | TGI (786-0 renal) [µM] | TGI (SF-539 CNS) [µM] | GI50 (HCC-2998 colon) [µM] | GI50 (NCI-H23 lung) [µM] | GI50 (COLO 205 colon) [µM] | GI50 (UO-31 renal) [µM] | GI50 (SF-539 CNS) [µM] | GI50 (UACC-257 melanoma) [µM] | GI50 (OVCAR-4 ovarian) [µM] | GI50 (HOP-92 NSCLC) [µM] | GI50 (HT29 colon) [µM]
1 | CC(=O)Nc1c(S(=O)(=O)c2ccccc2)c(C)c(C)n1Cc1ccccc1 | > 100 | > 100 | > 100 | > 100 | > 100 | > 100 | > 100 | > 100 | > 100 |  |  |  |  |  |  |  |  |  | 
2 | Clc1ccc(-c2cn3c(nc4ccccc43)c(/C=C/c3ccco3)n2)cc1 | > 100 | > 100 | > 100 | > 100 | > 100 | > 100 | 50.4 | > 100 | > 100 | > 100 |  |  |  |  |  |  |  |  | 
3 | Cc1c(N=Nc2ccccc2)c(C)n(C2OC(CO)C(O)C(O)C2O)c(=S)c1C#N (centres undefined) | 59.3 | > 100 | > 100 | 73.1 | > 100 | > 100 | 48.9 | > 100 | > 100 | 57.8 |  |  |  |  |  |  |  |  | 
4 | CC(=O)Nc1ccc2[nH]c(C(=O)N3CC(CCl)c4c3cc([N+](=O)[O-])c3ccccc43)cc2c1 (centres undefined) | > 100 | > 100 | > 100 |  | > 100 | > 100 | > 43.7 | > 100 | > 100 |  |  |  |  |  |  |  |  |  | 
5 | CC(C)(C)c1cc(OCc2nn3c(Cc4ccccc4)nnc3s2)c(Cl)cc1OCc1nn2c(Cc3ccccc3)nnc2s1 | > 100 | > 100 | > 100 | > 100 | 93.1 | > 100 | 52.9 | > 100 | > 100 | > 100 |  |  |  |  |  |  |  |  | 
6 | COC(=O)N[C@H](C(=O)O)C(C)O[Si](C)(C)C(C)(C)C (some centres undefined) | > 100 | > 100 | > 100 | > 100 | > 100 | > 100 |  | > 100 | > 100 | > 100 |  |  |  |  |  |  |  |  | 
7 | O=C1C(Cl)=C(N(C(=O)c2ccccc2)C(=O)c2ccccc2)C(=O)c2ccccc21 | 37.4 | 31.1 | 31 | 15.7 | 28.7 |  | 34.8 | 69.3 | 34.7 | 19.6 |  |  |  |  |  |  |  |  | 
8 | O=C(CSc1nc(-c2ccccc2)c(-c2ccccc2)[nH]1)N/N=C/c1ccc(O)cc1 | 61.1 | 84.3 | 35.1 | 93.2 | > 100 |  | 84.9 | 37.1 | 54.8 | 40.5 |  |  |  |  |  |  |  |  | 
9 | Cc1sc2c(c1C)/C(=N\O)c1cccn1-2 | > 100 |  | > 100 | > 100 | > 100 | > 100 |  | > 100 | 52.3 |  |  |  |  |  |  |  |  |  | 
10 | OCCN(/N=C\c1ccc2ccccc2c1)C1=NCCN1 | 32.6 | > 100 | 34.8 | > 100 |  | > 100 | 53.1 | 89 | 64.4 | 43.6 |  |  |  |  |  |  |  |  | 
11 | C=C1C(O)C[C@H](OC(C)=O)[C@]2(C)C1C(OC(C)=O)[C@]1(C(C)(C)O)CC(O)C(C)=C1[C@@H](OC(=O)c1ccccc1)C2OC(C)=O (some centres undefined) |  | > 10 | > 10 | > 10 | > 10 | > 10 | > 10 | > 10 | > 10 | > 10 |  |  |  |  |  |  |  |  | 
12 | COc1cc2c(c(O)c1OC)CC1CCC(=O)N1C2c1cccc2ccccc12 (centres undefined) | 33.3 | 67.6 | 28.9 | 55.4 | 61 |  | 45.7 | 34.5 | 94.5 | 30.6 |  |  |  |  |  |  |  |  | 
13 | COc1ccc([C@@H]2CC(=O)N2)cc1 |  | > 100 | > 100 | > 100 | > 100 | > 100 | > 100 | > 100 | > 100 | > 100 |  |  |  |  |  |  |  |  | 
14 | Cc1cc2c(C)n(Cc3ccccc3Cl)nc2c(C(=O)O)c1C | > 100 | > 100 |  | > 100 | > 100 |  | > 100 | > 100 | > 100 | > 100 |  |  |  |  |  |  |  |  | 
15 | Cc1n[nH]c(=O)n1/N=C\c1ccccc1 | > 100 | > 100 | > 100 | > 100 | > 100 | > 100 |  | > 100 | > 100 | > 100 |  |  |  |  |  |  |  |  | 
16 | COc1ccc2c3c([nH]c2c1)CCN(CCCC(=O)c1ccc(F)cc1)C3 | 17.7 | 34.8 | 25.5 | 27.5 | 31.7 | 32.2 |  | 18.3 | 27.1 | 22.3 |  |  |  |  |  |  |  |  | 
17 | CCN(CC)CCN1C(=O)c2c(c3c4ccccc4[nH]c3c3ccc4ccccc4c23)C1=O | 3.08 | 3.52 | 10.8 | 2.66 | 3.27 | 2.96 | 2.95 |  |  | 3.08 | 1.53 | 1.69 | 2.56 | 1.36 | 1.7 | 1.73 | 1.58 | 1.42 | 
18 | O=C1N2Cc3c4ccc5c3CN3C(=O)N6Cc7c(ccc(c7CN1C6(c1ccccc1)C23c1ccccc1)OCCOCCNCCOCCO4)OCCOCCNCCOCCO5 (centres undefined) | > 100 | > 100 |  | > 100 | 69 | > 100 | 57.4 | > 100 | 97.4 | > 100 |  |  |  |  |  |  |  |  | 
19 | COc1cc(OC)cc(-c2n/c(=C\c3c(O)[nH]c4ccc(OC)cc34)cc3c2=Nc2ccccc2-3)c1 | 3.51 | 8.47 |  | > 100 | 49.8 | 5.21 |  | 4.15 |  | 25.4 | 1.87 | 2.78 |  | 41.6 | 10.4 | 23.3 | 2.21 |  | 2.06
20 | C=C(C)COC1CCCCO1 (centres undefined) | > 100 | > 100 | > 100 | > 100 | > 100 |  |  | > 100 | > 100 | > 100 |  |  |  |  |  |  |  |  | 
21 | O=C(/C=C(\S/C=C(/c1ccccc1)N1CCn2c(C(=O)c3ccccc3)c(C(=O)c3ccccc3)c(C(=O)c3ccccc3)c21)C(=O)c1ccccc1)c1ccccc1 | > 10 | > 10 | > 10 |  | > 10 | > 10 | > 10 | > 10 | > 10 | > 10 |  |  |  |  |  |  |  |  | 
